Reference: paper PMC7541553 (Molecular cancer therapeutics, 2020)

Design: species or system BALB/C mice
Conditions: mouse, in vivo, iv

Substance: Arg-Gly-Asp [RGD]
- t1/2 in the circulation: 33.4 ± 0.9 min
